The results in this text go back to ChEMBL document CHEMBL1201862, “PubChem BioAssay data set” (2004).

The subject of assay [1] is BJ. Briefly: cytotoxicity toward Ras-transformed BJeLR fibroblasts, dose response, cell-based, alamar blue fluorescence, cherrypicked samples (AID 2631).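 Note: confirmatory dose-response assay in RAS-dependent BJ fibroblasts engineered with TERT, LT and ST, with cytotoxicity read by fluorescence.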 It is filed as functional. The following applies: Homo sapiens.
Assay [2] in a line: Luminescence Cell-Based Dose Confirmation HTS to Identify Inhibitors of Platelet Dense Granule Release. [Related pubchem assays: 1663 (Primary HTS), 1678 (Summary of Project)]. It is filed as functional.
Assay [3] deals with BJ. Put plainly: cytotoxicity toward BJ-TERT-LT-ST fibroblasts, dose response, cell-based, RAS-independent, luminescence (AID 1935).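 Note: BJ fibroblasts immortalized with TERT plus LT and ST oncogenes.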 It is filed as functional. Particulars: Homo sapiens.
For assay [4], the target named is Luciferin 4-monooxygenase (Photinus pyralis, UniProt P08659). Briefly: firefly luciferase enzyme inhibitors, dose response, biochemical, luminescence (AID 1891).
Sequence of Luciferin 4-monooxygenase (P08659 whole entry): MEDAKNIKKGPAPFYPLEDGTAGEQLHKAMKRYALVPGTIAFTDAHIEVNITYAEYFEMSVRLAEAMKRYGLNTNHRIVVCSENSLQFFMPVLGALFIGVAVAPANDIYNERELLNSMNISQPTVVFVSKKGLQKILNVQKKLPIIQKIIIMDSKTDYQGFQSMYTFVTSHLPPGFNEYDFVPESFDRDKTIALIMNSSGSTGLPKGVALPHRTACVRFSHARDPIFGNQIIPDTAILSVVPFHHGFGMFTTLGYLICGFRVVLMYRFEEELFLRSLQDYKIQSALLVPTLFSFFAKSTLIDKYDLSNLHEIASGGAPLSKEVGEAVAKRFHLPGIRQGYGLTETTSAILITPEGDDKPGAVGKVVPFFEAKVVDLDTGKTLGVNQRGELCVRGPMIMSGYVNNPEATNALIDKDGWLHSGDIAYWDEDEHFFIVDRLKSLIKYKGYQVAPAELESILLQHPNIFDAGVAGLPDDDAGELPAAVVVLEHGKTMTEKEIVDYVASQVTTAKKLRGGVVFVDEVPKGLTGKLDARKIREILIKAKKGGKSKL
The next assay has as its system HEK293. Briefly: inhibitors of LMP1-driven NF-kB reporter, dose response, cell-based, HEK293, luciferase, cherry-pick (AID 588343). It is filed as functional. The following applies: Homo sapiens.
Assay [5] can be described thus: inhibition of ADP-Glo detection reagents, dose response, artefact control for CDK5 inhibitor project, biochemical, luminescence, cherry-picked samples, set 2 (AID 504546). It is filed as functional. In general terms: In ADP-Glo the light output rises with the ADP produced.
Assay [6] can be described thus: cytotoxicity toward DRD oncogenic fibroblasts, dose response, cell-based, non-viral oncogenic, luminescence (AID 1934). It is filed as functional. Particulars: Homo sapiens.
The test system of assay [7] is BJ. Briefly: cells. It is filed as functional, cell-based. Particulars: Homo sapiens.
In assay [8] the test system is BJ. Put plainly: cytotoxicity toward BJ-TERT fibroblasts, dose response, cell-based, RAS-independent, luminescence (AID 1933). It is filed as functional. Particulars: Homo sapiens.
In assay [9] the target is Cyclin-dependent kinase 5/CDK5 activator 1 (Homo sapiens, UniProt Q00535). Put plainly: CDK5/p35 kinase inhibitors, dose response, biochemical, cherry-picked samples, set 2 (AID 504545).
Sequence of Cyclin-dependent kinase 5/CDK5 activator 1 (Q00535 whole entry): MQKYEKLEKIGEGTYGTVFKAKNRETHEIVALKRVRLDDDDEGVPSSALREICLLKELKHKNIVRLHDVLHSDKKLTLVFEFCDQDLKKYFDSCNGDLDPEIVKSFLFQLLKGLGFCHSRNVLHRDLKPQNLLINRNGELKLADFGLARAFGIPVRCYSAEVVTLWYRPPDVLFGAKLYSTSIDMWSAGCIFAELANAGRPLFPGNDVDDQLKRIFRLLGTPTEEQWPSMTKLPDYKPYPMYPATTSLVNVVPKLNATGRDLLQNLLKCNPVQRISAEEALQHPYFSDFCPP
Sequence of Cyclin-dependent kinase 5/CDK5 activator 1 (Q15078 whole entry, further chain): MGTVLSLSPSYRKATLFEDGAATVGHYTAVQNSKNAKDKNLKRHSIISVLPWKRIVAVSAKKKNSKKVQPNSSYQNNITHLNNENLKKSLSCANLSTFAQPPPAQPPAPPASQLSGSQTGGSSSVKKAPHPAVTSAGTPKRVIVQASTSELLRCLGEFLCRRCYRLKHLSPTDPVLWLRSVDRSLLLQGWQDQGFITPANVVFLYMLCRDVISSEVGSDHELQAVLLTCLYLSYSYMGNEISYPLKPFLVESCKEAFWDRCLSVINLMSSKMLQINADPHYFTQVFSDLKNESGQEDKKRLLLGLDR
For assay [10], the target named is Cystic fibrosis transmembrane conductance regulator/Golgi-associated PDZ and coiled-coil motif-containing protein (Homo sapiens, UniProt P13569+Q9HD26). Briefly: CAL PDZ peptide-binding inhibitors, dose response, biochemical, fluorescence polarization, Cerulean-tagged CAL PDZ, cherry-picks (AID 504773). A general note: In fluorescence polarisation assays a small probe gives low polarisation when free and higher when bound to something large.
Sequence of Cystic fibrosis transmembrane conductance regulator/Golgi-associated PDZ and coiled-coil motif-containing protein (P13569 whole entry, other chains not shown): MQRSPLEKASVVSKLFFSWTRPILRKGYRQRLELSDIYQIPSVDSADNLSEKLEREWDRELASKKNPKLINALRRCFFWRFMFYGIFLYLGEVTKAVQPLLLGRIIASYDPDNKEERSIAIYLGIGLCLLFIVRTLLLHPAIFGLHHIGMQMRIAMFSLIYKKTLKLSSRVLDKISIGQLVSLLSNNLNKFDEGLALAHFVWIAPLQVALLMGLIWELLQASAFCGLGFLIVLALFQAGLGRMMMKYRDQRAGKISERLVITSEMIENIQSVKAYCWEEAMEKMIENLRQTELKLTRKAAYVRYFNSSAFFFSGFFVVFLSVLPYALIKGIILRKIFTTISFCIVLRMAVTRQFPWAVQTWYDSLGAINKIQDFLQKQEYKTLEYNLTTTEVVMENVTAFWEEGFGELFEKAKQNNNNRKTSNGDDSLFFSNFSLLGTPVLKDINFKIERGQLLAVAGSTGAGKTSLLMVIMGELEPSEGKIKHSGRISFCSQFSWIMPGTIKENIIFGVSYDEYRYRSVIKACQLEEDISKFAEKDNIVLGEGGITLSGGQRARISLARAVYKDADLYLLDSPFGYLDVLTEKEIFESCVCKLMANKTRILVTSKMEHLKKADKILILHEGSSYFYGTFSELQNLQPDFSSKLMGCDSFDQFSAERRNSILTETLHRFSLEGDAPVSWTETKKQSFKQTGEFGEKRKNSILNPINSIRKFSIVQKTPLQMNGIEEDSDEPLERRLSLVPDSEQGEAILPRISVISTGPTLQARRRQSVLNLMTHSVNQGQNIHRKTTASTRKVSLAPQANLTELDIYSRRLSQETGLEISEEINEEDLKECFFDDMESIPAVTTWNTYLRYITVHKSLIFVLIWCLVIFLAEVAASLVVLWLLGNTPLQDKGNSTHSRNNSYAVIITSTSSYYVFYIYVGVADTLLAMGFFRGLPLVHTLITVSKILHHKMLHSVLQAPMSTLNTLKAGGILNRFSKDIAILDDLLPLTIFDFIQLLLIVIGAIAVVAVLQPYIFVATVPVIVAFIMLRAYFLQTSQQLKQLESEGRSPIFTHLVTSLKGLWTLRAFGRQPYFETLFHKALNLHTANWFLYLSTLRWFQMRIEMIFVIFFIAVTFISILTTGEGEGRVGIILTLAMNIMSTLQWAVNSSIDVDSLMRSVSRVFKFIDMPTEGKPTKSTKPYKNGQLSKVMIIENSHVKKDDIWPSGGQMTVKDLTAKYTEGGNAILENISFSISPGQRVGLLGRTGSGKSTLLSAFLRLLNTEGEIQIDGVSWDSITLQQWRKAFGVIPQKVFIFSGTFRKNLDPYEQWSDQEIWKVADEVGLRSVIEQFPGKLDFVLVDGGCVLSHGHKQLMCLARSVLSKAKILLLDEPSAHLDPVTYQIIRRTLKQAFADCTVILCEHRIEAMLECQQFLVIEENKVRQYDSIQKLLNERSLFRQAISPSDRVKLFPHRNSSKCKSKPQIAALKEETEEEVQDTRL

For another assay, the target named is Hexokinase (Trypanosoma brucei, UniProt Q38C41). Briefly: Confirmation assay for inhibitors of Trypanosoma brucei hexokinase 1-Analogue-first series. [Related pubchem assays (depositor defined):AID1430, AID1632, AID2516, AID2560, AID2579, AID2600, AID449725, AID492951]. It is filed as functional.
Sequence of Hexokinase (Q38C41 whole entry): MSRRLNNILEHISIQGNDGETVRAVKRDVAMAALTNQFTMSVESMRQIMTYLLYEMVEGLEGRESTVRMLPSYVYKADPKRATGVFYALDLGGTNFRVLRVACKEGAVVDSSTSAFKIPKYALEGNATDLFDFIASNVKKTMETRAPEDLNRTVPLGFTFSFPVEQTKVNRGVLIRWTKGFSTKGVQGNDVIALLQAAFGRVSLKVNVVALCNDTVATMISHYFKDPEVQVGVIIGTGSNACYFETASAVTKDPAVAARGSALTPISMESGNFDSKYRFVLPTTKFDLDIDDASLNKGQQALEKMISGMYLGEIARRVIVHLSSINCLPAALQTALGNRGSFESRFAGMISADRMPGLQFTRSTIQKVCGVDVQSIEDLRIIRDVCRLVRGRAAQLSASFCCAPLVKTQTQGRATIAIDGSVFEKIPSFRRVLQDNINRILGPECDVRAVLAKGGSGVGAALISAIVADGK
A short description of assay [11]: THP-1 cell cytotoxicity, dose response, cytotoxicity control for non-replicating M. tuberculosis project (AID 489025). It is filed as functional.
Assay [12] can be described thus: inhibitors of intracellular T. cruzi replication, confirmation, NIH3T3 host cells, beta-gal luminescence (AID 2044).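 Note: intracellular parasites grown in NIH/3T3 mouse fibroblasts as host cells; luminescent beta-galactosidase reporter signal from transgenic T. cruzi replicating inside host cells; inhibitors lower the luminescence signal.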 It is filed as functional, cell-based.
A short description of assay [13]: HepG2 cell cytotoxicity, dose response, cytotoxicity control for non-replicating M. tuberculosis project (AID 489018). The following applies: Mycobacterium tuberculosis. It is filed as functional.
A short description of assay [14]: cytotoxicity toward NIH3T3 fibroblasts, dose response, counter-screen, cell-based, ATP luminescence, mouse fibroblasts (AID 2010).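 Note: cells exposed to compound for about 90 hours before reading.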 It is filed as functional. On the technique in general: A counterscreen serves to expose hits that act by an unwanted route or on another target.
Assay [15] in a line: Vero E6 cell cytotoxicity, dose response, cytotoxicity control for non-replicating M. tuberculosis project, secondary assay (AID 492998). Particulars: Vero C1008. It is filed as functional, VeroE6.
Another assay is described as follows: cells. It is filed as functional.
A short description of assay [16]: Luminescence Cell-Based Dose Retest to Confirm Inhibitors of Cancer Stem Cells. [Related pubchem assays (depositor defined):AID2717, AID2721]. It is filed as functional. Particulars: Homo sapiens.
Assay [17] can be described thus: nonselective inhibitors of cellular cAMP signaling, dose response, counter-screen for MC4R biased antagonist project, cell-based, TR-FRET cAMP detection (AID 602305).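 Note: U2OS cells stimulated with forskolin near its EC80 as the cAMP inducer; potency is for inhibition of forskolin-stimulated cAMP signaling.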 It is filed as functional.
The target in assay [18] is T1, Short transient receptor potential channel 4 (Mus musculus, UniProt Q9QUQ5).
T1 sequence (Q9QUQ5 whole entry): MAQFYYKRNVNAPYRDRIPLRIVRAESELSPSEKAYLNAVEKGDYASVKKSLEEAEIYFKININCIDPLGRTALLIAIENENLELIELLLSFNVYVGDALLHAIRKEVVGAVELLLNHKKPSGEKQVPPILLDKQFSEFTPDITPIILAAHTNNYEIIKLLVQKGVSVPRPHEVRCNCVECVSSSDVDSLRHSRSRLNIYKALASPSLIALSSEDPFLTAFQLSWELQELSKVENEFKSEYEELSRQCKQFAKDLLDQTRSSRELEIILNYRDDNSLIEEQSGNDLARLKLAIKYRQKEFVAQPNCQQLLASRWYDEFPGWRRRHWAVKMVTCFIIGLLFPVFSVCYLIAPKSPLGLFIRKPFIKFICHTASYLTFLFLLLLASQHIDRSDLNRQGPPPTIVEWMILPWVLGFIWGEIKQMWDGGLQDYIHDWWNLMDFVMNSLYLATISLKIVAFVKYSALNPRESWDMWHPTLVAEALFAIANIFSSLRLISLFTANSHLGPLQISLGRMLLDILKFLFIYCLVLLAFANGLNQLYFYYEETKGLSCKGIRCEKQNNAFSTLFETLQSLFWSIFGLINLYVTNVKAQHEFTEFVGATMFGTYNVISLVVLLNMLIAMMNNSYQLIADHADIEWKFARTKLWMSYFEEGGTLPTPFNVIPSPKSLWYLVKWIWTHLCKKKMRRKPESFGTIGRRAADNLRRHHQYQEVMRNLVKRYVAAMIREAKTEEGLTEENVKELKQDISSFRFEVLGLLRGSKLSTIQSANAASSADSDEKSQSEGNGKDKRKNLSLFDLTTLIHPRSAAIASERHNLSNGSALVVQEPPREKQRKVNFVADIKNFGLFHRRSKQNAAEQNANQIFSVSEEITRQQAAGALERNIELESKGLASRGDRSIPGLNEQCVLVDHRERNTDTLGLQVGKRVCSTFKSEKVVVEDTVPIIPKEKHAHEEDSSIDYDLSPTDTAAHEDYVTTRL
Put plainly: TRPC4 positive allosteric modulators, dose response, cell-based, HEK293 TRPC4/mu-opioid, Fluo-4 calcium, EC20 DAMGO (AID 434941).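 Note: HEK293 cells coexpressing TRPC4 and mu opioid receptor stimulated by EC20 DAMGO.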 It is filed as functional.

Assay [19] has as its target Heat shock protein HSP 90-alpha (Homo sapiens, UniProt P07900). It is filed as functional, organism-based.
The next assay deals with Melanocortin receptor 4 (Homo sapiens, UniProt P32245). Briefly: MC4R antagonist potency on cAMP, dose response, cell-based, TR-FRET, biased antagonists (AID 602298).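 Note: antagonist potency against agonist-stimulated cAMP production.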 It is filed as functional.
Sequence of Melanocortin receptor 4 (P32245 whole entry): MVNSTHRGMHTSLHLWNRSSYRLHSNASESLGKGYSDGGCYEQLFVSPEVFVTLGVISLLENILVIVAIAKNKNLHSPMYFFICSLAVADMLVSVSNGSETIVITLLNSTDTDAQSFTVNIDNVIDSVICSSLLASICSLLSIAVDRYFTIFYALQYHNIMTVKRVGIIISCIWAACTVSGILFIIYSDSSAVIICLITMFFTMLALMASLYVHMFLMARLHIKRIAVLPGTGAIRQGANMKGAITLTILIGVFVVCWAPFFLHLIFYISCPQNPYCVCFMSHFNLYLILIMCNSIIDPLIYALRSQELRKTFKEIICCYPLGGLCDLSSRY
Assay [20] deals with DNA dC->dU-editing enzyme APOBEC-3A (Homo sapiens, UniProt P31941). Put plainly: Dose Response confirmation of small molecule APOBEC3A DNA Deaminase Inhibitors via a fluorescence-based single-stranded DNA deaminase assay. [Related pubchem assays (depositor defined):AID493011, AID493024]. It is filed as functional.
Sequence of DNA dC->dU-editing enzyme APOBEC-3A (P31941 whole entry): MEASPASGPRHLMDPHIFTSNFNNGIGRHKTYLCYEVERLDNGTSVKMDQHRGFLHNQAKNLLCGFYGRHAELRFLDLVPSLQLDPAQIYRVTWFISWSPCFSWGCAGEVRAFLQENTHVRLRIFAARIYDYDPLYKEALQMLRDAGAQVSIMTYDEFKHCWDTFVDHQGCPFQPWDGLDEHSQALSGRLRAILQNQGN
Assay [21] addresses Polyadenylate-binding protein 1 (Homo sapiens, UniProt P11940). Put plainly: PABP poly(A) RNA binding inhibitors, primary screen, biochemical, fluorescence polarization, uHTS (AID 2014).
In assay [22] the target is DNA dC->dU-editing enzyme APOBEC-3G (Homo sapiens, UniProt Q9HC16). It is filed as functional.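 Note: Dose-response counterscreen measuring inhibition of APOBEC3G DNA deaminase activity, run while confirming APOBEC3A inhibitors.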
Sequence of DNA dC->dU-editing enzyme APOBEC-3G (Q9HC16 whole entry): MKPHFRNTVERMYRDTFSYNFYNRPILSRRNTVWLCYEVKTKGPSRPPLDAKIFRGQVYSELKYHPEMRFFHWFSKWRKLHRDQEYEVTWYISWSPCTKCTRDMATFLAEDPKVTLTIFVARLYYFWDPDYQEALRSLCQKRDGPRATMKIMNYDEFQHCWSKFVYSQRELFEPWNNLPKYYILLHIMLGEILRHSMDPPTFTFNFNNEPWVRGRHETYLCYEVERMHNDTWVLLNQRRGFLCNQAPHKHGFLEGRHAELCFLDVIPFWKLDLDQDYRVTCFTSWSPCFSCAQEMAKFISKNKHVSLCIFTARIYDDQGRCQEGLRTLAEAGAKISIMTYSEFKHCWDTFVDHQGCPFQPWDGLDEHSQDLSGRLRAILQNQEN
The target of assay [23] is Eukaryotic translation initiation factor 4H (Homo sapiens, UniProt Q15056). Put plainly: human eIF4H binding inhibitors, primary screen, translation initiation inhibitor project, biochemical, uHTS, fluorescence polarization (AID 2012).

The source made the active and inactive calls. A value given as a limit tells only on which side of the number the result lay.

Sequence of Polyadenylate-binding protein 1 (P11940 whole entry): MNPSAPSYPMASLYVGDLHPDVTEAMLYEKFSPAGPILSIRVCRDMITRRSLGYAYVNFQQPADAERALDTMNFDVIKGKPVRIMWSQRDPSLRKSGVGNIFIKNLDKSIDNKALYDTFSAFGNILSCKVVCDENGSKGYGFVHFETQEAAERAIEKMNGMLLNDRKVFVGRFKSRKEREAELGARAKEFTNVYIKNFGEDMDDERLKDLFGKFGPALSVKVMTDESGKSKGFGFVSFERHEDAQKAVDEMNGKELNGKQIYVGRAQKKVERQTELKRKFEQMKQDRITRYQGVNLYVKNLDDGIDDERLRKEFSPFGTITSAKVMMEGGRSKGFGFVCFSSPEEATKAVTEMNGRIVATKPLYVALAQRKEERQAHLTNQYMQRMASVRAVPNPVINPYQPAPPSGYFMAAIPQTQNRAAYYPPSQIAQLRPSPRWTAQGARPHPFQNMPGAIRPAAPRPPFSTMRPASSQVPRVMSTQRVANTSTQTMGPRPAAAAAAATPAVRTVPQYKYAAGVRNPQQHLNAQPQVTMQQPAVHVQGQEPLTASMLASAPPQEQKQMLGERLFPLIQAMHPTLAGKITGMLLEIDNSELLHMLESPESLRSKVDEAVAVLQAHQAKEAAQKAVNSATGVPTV

By EC50 is commonly meant the concentration at which the effect is half-maximal. What is called AC50 is the concentration giving half of the maximal activity seen. As to `CCN(CC)C(=O)c1ccc(NC(=O)Nc2ccccc2F)cc1`, the EC50 is > 133 µM (inactive) in the assay with BJ [1]; < 0.701 µM (active) in assay [2]; 9.1 µM (inconclusive) in the assay with BJ [3]; 0.225 µM (active) in [4]; 3.5 µM (active) in assay [6]; 4.99 µM (active) in the assay on BJ [7]. In the assay with BJ [8], the EC50 is 4.45 µM (active). The AC50 in the assay with HEK293 is 2.08 µM (active); in assay [5], 51.6 µM (active); in [9], 21.1 µM (active).

For the molecule `O=C1C=C(c2ccccc2)C(c2ccccc2)C1` (configuration not stated), the AC50 in assay [10] was 17 µM (active).

For orientation: IC50 means the concentration needed to halve the response being measured. `CCOC(=O)c1ccncc1NC(=O)c1ccc(OC)cc1`: the IC50 at Hexokinase is > 25 µM (inactive).

As usually defined, the CC50 is the concentration at which the toxic effect on the cells reaches its halfway point. With `CC(=O)Nc1nc2ccccc2n1Cc1ccc(C)cc1`, the figures for the CC50 in assay [11], in [13] and in assay [15] were > 40 µM (active), > 20 µM (active) and > 20 µM (active), respectively. For the same molecule, the EC50 was 3.92 µM (active) in assay [12] and 7.78 µM (active) in assay [14]. Besides, the IC50 in the assay “cells” was 2.73 µM (active).

In the case of `CC1CCN(c2nc(Cl)nc(Nc3ccc([N+](=O)[O-])cc3)n2)CC1`, the half-maximal activity concentration (AC50) in assay [16] was 2.99 µM (active); in [19], 17.6 µM (active). In addition, the IC50 (in [17]; on Melanocortin receptor 4) was > 64.5 µM (inactive) in each case. Further, the EC50 in [18] is 3.35 µM (active).

`COc1cccc(NC(=O)c2ccc[n+](C)c2)c1`: the IC50 in assay [20] is 2.33 µM (active); in [21], 4.86 µM (active); in assay [22] it was 2.22 µM (active); in assay [23], > 100 µM (inactive).
